Assays:
[1] = system: β-amyloid plaques in human AD brain sections; experiment: Labeling of AD amyloid plaques in vitro with putrescine- and gadolinium-labeled Aβ; format: binding; conditions: equal amounts of radioactivity
From the text: Labeling of AD Amyloid Plaques In Vitro with Putrescine- and Gadolinium-Labeled Aβ. […] The slides were dipped in emulsion, exposed, and developed according to the instructions. The sections were dehydrated with successive changes of ethanol and xylene and then coverslipped.

BBB [2] = conditions: mouse, in vivo
Description: PS and Vp Determination in Mice. […] Blood was sampled from the femoral artery at several intervals during the next 15 minutes. Whole blood was sampled directly, using heparinized micro-hematocrit capillary tubes and TCA extracted. The supernatant was separated from the pellet and both were counted in a gamma counter. The radioactivity in the pellet was expressed as a percentage of the total radioactivity found in both the pellet and supernatant. An aliquot of the peptide labeled with ^131I was then injected into the femoral vein 15 seconds prior to sacrifice of the animal to serve as a measure of residual plasma volume (Vp; μl/g). After collection of the final blood sample, the anesthetized animal was sacrificed. […] The permeability coefficient x surface area products (PS; 10^−6 ml/g/s) were then calculated using the Vp as a measure of residual plasma volume based on equations that have been discussed in detail elsewhere (Poduslo and Curran, supra (1996a); Poduslo and Curran, supra (1996b); Wengenack, et al., supra (1997); Poduslo, et al., supra (1998); Poduslo, et al., supra (2000); Poduslo, et al., supra (2001). Statistical evaluations of PS and Vp were performed using ANOVA followed by Bonferroni multiple comparisons.

β-amyloid plaques = experiment: MRI (7 Tesla, T2W/T1W) of post-mortem brain with thioflavin S histologic correlation after IV injection of probe in mice; format: in vivo, APP-PS1 transgenic mice; conditions: for T1 plaque enhancement on T1W images / accelerated T2 relaxation on T2W images: APP-PS1 transgenic mouse, four hours
[3] = system: parenchymal amyloid deposits; experiment: Labeling of amyloid deposits in vivo after i.v. injection in APP, PS1 transgenic mice; conditions: 200 μg i.v., four hours, emulsion autoradiography, PS1 transgenic mice 27 weeks of age
From the text: These mice develop amyloid deposits and behavioral deficits within 12 weeks of age. Hemizygous transgenic mice (Tg2576) expressing mutant human amyloid precursor protein (APP695) were mated with a second strain of hemizygous transgenic mice (M146L5.1) expressing mutant human presenilin 1 (PS1). Holcomb, L., et al., Nature Med. 4:97-100 (1998). The animals were genotyped for the expression of both transgenes by a dot blot method using a sample of mouse tail DNA. The mice were housed in a virus-free barrier facility under a 12-hour light/dark cycle, with ad lib access to food and water.
After four hours, each animal was perfused with PBS and fixed with neutral-buffered, 10% formalin following an overdose with sodium pentobarbital (75 mg/kg, i.p.). After cryoprotecting in 10% and 30% sucrose in PBS, frozen sections of each brain were cut with a freezing microtome and then processed with anti-Aβ IH and emulsion autoradiography for the presence of radiolabeled amyloid deposits using the same methods described above for the human AD sections.

[4] = system: amyloid deposits in AD temporal lobe cortex sections; experiment: Labeling of amyloid deposits in vitro in AD temporal lobe cortex sections (film and emulsion autoradiography); format: binding, human; conditions: for specificity of binding for type of amyloid deposit: AD temporal lobe cortex sections in vitro
Description: The sections were washed with TBS, pH 7.0 four times and then rinsed briefly with distilled water twice. The sections were allowed to air dry overnight in a box with desiccant at 4° C.
Sections then underwent immunohistochemistry (IH) for amyloid using an anti-Aβ monoclonal mouse antibody (4G8, Senetek). Untreated sections were included as a positive control for antibody staining. After rehydrating with TBS, pH 7.6, the sections were fixed briefly with neutral-buffered, 10% formalin for 3 minutes. The sections were washed with TBS and then blocked with 1.5% normal horse serum in TBS for 30 minutes. The sections were incubated with the anti-Aβ primary antibody at a dilution of 1:1000 in 0.1% BSA/TBS overnight at 4° C. The primary antibody was then visualized using a Vectastain Elite ABC, immunoperoxidase kit with diaminobenzidine (DAB) as a substrate according to the instructions (Vector Laboratories). The sections were allowed to air dry overnight in a box with desiccant at 4° C.
FIGS. 2A-2B are the film autoradiographs. Note the presence of punctate areas of exposed film located predominantly in the regions corresponding to gray matter. This is similar to the distribution of amyloid deposits seen following IH of the tissue sections. It was possible to overlay the two for direct correspondence under the microscope.
In order to definitively correlate the IH with the iodinated peptide by colocalization, the sections were next dipped in an autoradiographic emulsion (Type NTB-3, Kodak). The slides were dipped in emulsion at 43° C. under Safelight illumination in a darkroom. The slides were chilled to solidify the emulsion and then allowed to air dry at room temperature for 3 hours in a light-proof box. The slides were exposed at 4° C. in a light-proof box with desiccant. The slides were developed with Dektol developer (Kodak) and fixed (Kodak) according to the instructions. The sections were dehydrated with successive changes of ethanol and xylene and then coverslipped with a xylene-based mounting media (CMS).

BBB [5] = format: in vivo, Sprague-Dawley rats; conditions: rat
Description: Poduslo, J. F. and Curran, G. L., Proc. Natl. Acad. Sci. USA 89:2218-2222 (1992); Poduslo, J. F. and Curran, G. L., Molec. Brain Res. 23:157-162 (1994); and Poduslo, J. F., et al., Proc. Natl. Acad. Sci. USA 9:5705-5709 (1994). Putrescine modification of synthetic human Aβ1-40 was performed by covalent linkage of the polyamine to carboxylic acid groups using carbodiimide at a pH of 6.7. Poduslo, J. F. and Curran, G. L., J. Neurochem. 66:1599-1609 (1996); and Poduslo, J. F. and Curran, G. L., J. Neurochem.
PS and Vp values were determined in normal adult male Sprague-Dawley rats (400-450 g) obtained from Harlan. […] Blood (200 μl) was sampled from the brachial artery at several intervals during the next 15 minutes.

[6] = in vivo, iv; cited from earlier work

Chain of parenchymal amyloid deposits (P05067 672-711 limits assumed): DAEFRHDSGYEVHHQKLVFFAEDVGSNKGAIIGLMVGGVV

Molecule	exposure time required for detection of plaque binding (emulsion autoradiography) [1]	T1 plaque enhancement on T1W images (β-amyloid plaques; IV injection)	accelerated T2 relaxation on T2W images (β-amyloid plaques; IV injection)	labeling of parenchymal amyloid deposits in vivo [3]	specificity of binding for type of amyloid deposit [4]	amount of radiolabeled peptide present in PBS-perfused brain [6] [%]	further results
Gd-Aβ: Aβ (1-40) with DTPA chelating arm at the amino terminus, chelated with gadolinium; Aβ to Gd 1:1	nine	no significant plaque enhancement	accelerated T2 relaxation was observed in plaques				effect of gadolinium labeling of Aβ on the PS value (BBB [2]): decrease in the PS value in five of the six brain regions, however, this was of non-significant magnitude
PUT Aβ 1-40: synthetic human Aβ1-40 with putrescine covalently linked to carboxylic acid groups using carbodiimide; radioiodinated for the measurements				able to cross the BBB and bind to amyloid deposits in vivo	specific for dense-core, neuritic-type amyloid deposits	0.35	density of exposed silver grains on amyloid deposits (emulsion autoradiography) ([4]; equal amounts of radioactivity and exposure time (6 days), versus 125I-Aβ1-40): higher density of silver grains; increase of permeability at the blood brain barrier by putrescine modification (BBB [5]): two-fold
O=C([O-])CN(CCN(CC(=O)[O-])CC(=O)O)CCN(CC(=O)[O-])CC(=O)O.[Gd+3] [Gd-DTPA, gadolinium diethylenetriaminepentaacetic acid, reference compound]		No evidence of T1 plaque enhancement	expected focal areas of T2 acceleration that corresponded to plaques				
NCCCCN [putrescine, reference compound]							effect of unbound putrescine on binding of iodinated peptide to amyloid deposits ([4]; 10-fold excess unbound putrescine, 100 pM 125I-Aβ1-40 or 125I-PUT-Aβ1-40): no appreciable effect on binding of iodinated peptide
Aβ 1-40: synthetic human amyloid β peptide 1-40, native (unmodified); radioiodinated for the measurements [reference compound]				did not exhibit labeling of any parenchymal amyloid deposits	specific for dense-core, neuritic-type amyloid deposits	0.03	
putrescine-gadolinium-amyloid-β peptide [PUT-Gd-Aβ]	one	many focal areas of accelerated T1 relaxation visible as bright spots	Numerous focal areas of accelerated T2 relaxation				T1 CNR (contrast-to-noise ratio) (β-amyloid plaques; APP-PS1 mice, IV injection, T1W MRI, mean ± SEM, n = 15 plaques): 7.13 ± 1.03; T1 PBR (plaque-to-background voxel intensity ratio) (β-amyloid plaques; APP-PS1 mice, IV injection, T1W MRI, mean ± SEM, n = 15 plaques, maximum intensity): 1.24 ± 0.04; T2 CNR (contrast-to-noise ratio) (β-amyloid plaques; APP-PS1 mice, IV injection, T2W MRI, mean ± SEM, n = 15 plaques): −8.95; T2 PBR (plaque-to-background voxel intensity ratio) (β-amyloid plaques; APP-PS1 mice, IV injection, T2W MRI, mean ± SEM, n = 15 plaques, minimum intensity): 0.29 ± 0.03; fold increase of T1 CNR in injected mice (β-amyloid plaques; APP-PS1 mice, T1 images): 4.2-9.4 fold; fold increase of T1 PBR in injected mice (β-amyloid plaques; APP-PS1 mice, T1 images): 1.2 fold; cortical tissue volume occupied by enhanced plaque (β-amyloid plaques; APP-PS1 mouse, T1W, interpretation of pixel proportion): roughly 10%; proportion of pixels within cortical ROI whose intensity exceeded the 4-S.D. threshold (β-amyloid plaques; APP-PS1 mouse, T1W, mean (±S.D.) across 10 images, 812.5×812.5 μm ROI): 9.9%; MRI features in non-transgenic mouse (focal areas of accelerated T1 relaxation) (β-amyloid plaques; non-transgenic mouse, compared with PBS-injected non-transgenic mouse (no focal T1 areas)): yielded the same results
